One data set concerns the target T1, vasopressin V2 receptors (Rattus norvegicus, UniProt Q00788).
T1 construct: Male or female normotensive Sprague-Dawley rats; tissue Charles River Laboratories, Inc; host or cells: whole animal (Sprague-Dawley rat; kidney collecting ducts per the background)
The experiment in a line: Vasopressin V2 agonist effects in normal conscious water-loaded rats. In kind it is in vivo. The following applies: vs control; oral dose of 10 mg/Kg; urine collected for four hours; Sprague-Dawley (CD) rats. The source says:
Vasopressin V2 Agonist Effects of Test Compounds in Normal Conscious Water-Loaded Rats
Male or female normotensive Sprague-Dawley rats (Charles River Laboratories, Inc., Kingston, N.Y.) of 350-500 g body weight were supplied with standard rodent diet (Purina Rodent Lab. Chow 5001) and water ad libitum. On the day of test, rats were placed individually into metabolic cages equipped with devices to separate the feces from the urine and containers for collection of urine. A test compound or a reference agent was given at an oral dose of 10 mg/Kg in a volume of 10 mL/Kg. The vehicle used was 2.5% preboiled corn starch in 20% dimethylsulfoxide (DMSO). Thirty minutes after dosing the test compound, rats were gavaged with water at 30 mL/Kg into the stomach using a feeding needle. During the test, rats were not provided with water or food. Urine was collected for four hours after dosing of the test compound. At the end of four hours, urine volume was measured. Urinary osmolality was determined using a Fiske One-Ten Osmometer (Fiske Associates, Norwood, Mass., 02062) or an Advanced CRYOMATIC Osmometer, Model 3C2 (Advanced Instruments, Norwood, Mass.). Determinations of Na^+, K^+ and Cl^− ion were carried out using ion specific electrodes in a Beckman SYNCHRON EL-ISE Electrolyte System analyzer. The urinary osmolality should increase proportionally. In the screening test, two rats were used for each compound. If the difference in the urine volume of the two rats was greater than 50%, a third rat was used.

This note sets out measurements from patent US7329653B2, “Cyclohexylphenyl vasopressin agonists” (Wyeth, priority 2001, dated 2008).

T1 sequence (Q00788 whole entry): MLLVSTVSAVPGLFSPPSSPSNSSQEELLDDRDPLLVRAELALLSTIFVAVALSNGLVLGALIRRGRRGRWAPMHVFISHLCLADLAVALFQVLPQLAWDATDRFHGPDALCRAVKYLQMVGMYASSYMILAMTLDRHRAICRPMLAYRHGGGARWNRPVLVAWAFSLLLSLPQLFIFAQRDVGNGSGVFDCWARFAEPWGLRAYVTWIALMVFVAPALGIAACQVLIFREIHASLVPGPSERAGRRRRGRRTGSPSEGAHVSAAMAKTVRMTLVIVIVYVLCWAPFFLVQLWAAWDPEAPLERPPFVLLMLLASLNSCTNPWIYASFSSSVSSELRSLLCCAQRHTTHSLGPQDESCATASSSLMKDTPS

Turning to `CCN1c2ccccc2N(C(=O)c2ccc(C3CCCCC3)cc2)Cc2cccnc21` [Example 4, (4-Cyclohexyl-phenyl)-(5,11-dihydro-11-ethyl-5H-pyrido[2,3-b][1,5]benzodiazepin-6-yl)-methanone], at vasopressin V2 receptors, the “Urinary Osmolality (% increase)” value is on record as 132 % increase and the “Urine Volume (% decrease)” value amounted to 64 % decrease. For orientation: melting point means the temperature, or range, at which the solid turns liquid. Take `O=C(c1ccc(C2CCCCC2)cc1)N1CCCCc2sccc21` [Example 8, (4-Cyclohexyl-phenyl)-(5,6,7,8-tetrahydro-thieno[3,2-b]azepin-4-yl)-methanone]: the melting point lay in the range of 145 to 148 °C. Compound `O=C(c1ccc(C2CCCCC2)cc1)N1Cc2cccn2Cc2ccccc21` [Example 1, 10-(4-Cyclohexyl-benzoyl)-10,11-dihydro-5H-pyrrolo[2,1-c][1,4]benzodiazepine] showed a melting point of 127 to 129 °C. Moreover, at vasopressin V2 receptors, the “Urinary Osmolality (% increase)” value worked out at 232 % increase and the “Urine Volume (% decrease)” value amounted to 61 % decrease. `O=C(c1ccc(C2CCCCC2)cc1)N1Cc2cccn2Cc2ncccc21` [Example 7, (4-Cyclohexyl-phenyl)-(4H,10H-3a,5,9-triaza-benzo[f]azulen-9-yl)-methanone] came in with a melting point of 150 to 152 °C.

With `CN1c2ccccc2N(C(=O)c2ccc(C3CCCCC3)cc2)Cc2cccnc21` [Example 3, (4-Cyclohexyl-phenyl)-(5,11-dihydro-11-methyl-5H-pyrido[2,3-b][1,5]benzodiazepin-6-yl)-methanone], at vasopressin V2 receptors, the “Urinary Osmolality (% increase)” value is 129 % increase and the “Urine Volume (% decrease)” value came to 51 % decrease.

As for `O=C(c1ccc(C2CCCCC2)cc1)N1Cc2ccccc2Nc2ccccc21` [Example 5, (4-Cyclohexyl-phenyl)-(5,11-dihydro-10H-dibenzo[b,e][1,4]diazepin-10-yl)methanone], the melting point was 175 to 176 °C.

In turn, `O=C(c1ccc(C2CCCCC2)cc1)N1Cc2cccnc2Nc2ccccc21` [Example 2, (4-Cyclohexyl-phenyl)-(5,11-dihydro-pyrido[2,3-b][1,5]benzodiazepin-6-yl)-methanone] gave a melting point of 230 to 233 °C. On vasopressin V2 receptors, the “Urinary Osmolality (% increase)” value was 51 % increase and the “Urine Volume (% decrease)” value is reported as 48 % decrease. With `CN1c2ccccc2CN(C(=O)c2ccc(C3CCCCC3)cc2)c2ccccc21` [Example 6, (4-Cyclohexyl-phenyl)-(5,11-dihydro-5-methyl-10H-dibenzo[b,e][1,4]diazepin-10-yl)-methanone], the melting point was 111 to 112 °C.
